Assay results from patent publication US6878712B1, “Amides as inhibitors for pyruvate dehydrogenase” (AstraZeneca AB, priority 1999, dated 2005).
Counter-ions that a name gives are not always drawn.

Assays:
[1] = cited from earlier work
PDH = details: cited from earlier work

melting point | Structure (SMILES) | other results
194 to 196 °C | C[C@@H]1CN(C(=O)[C@@](C)(O)C(F)(F)F)[C@@H](C)CN1S(=O)(=O)c1ccc(C(=O)O)cc1 | 
174 to 175 °C | C[C@@H]1CN(C(=O)[C@@](C)(O)C(F)(F)F)[C@@H](C)CN1S(=O)(=O)c1ccc(F)cc1 | 
177 to 178 °C | C[C@@H]1CN(C(=O)[C@@](C)(O)C(F)(F)F)[C@@H](C)CN1C(=O)c1ccc(F)cc1 | 
86 to 87 °C | C[C@@H]1CN(C(=O)[C@@](C)(O)C(F)(F)F)[C@@H](C)CN1S(=O)(=O)c1ccc(C(=O)N(C)C)cc1 | 
186 to 187 °C | C[C@@H]1CN(C(=O)[C@@](C)(O)C(F)(F)F)[C@@H](C)CN1S(=O)(=O)c1ccc(C#N)cc1 | 
116 to 117 °C | C[C@@H]1CN(C(=O)[C@@](C)(O)C(F)(F)F)[C@@H](C)CN1S(=O)(=O)c1cccs1 | 

Continued, compound first:

Structure (SMILES) | melting point | other results
C[C@@](O)(C(=O)N1CCC(C(=O)c2ccc(F)cc2)CC1)C(F)(F)F | 78 to 79 °C | 
O=C(O)C(Cl)Cl [DCA, dichloroacetic acid] |  | plasma glucose ([1]; after repeated administration): significant decrease in plasma glucose; glycaemia ([1]; in vivo): reducing glycaemia; activity of PDH (PDH; after acute administration in animals): increases the activity of PDH; proportion of PDH in its active form (PDH; single administration, 150 mg/kg, intraperitoneally): increased the proportion of PDH in its active form
C[C@@](O)(C(=O)N1CCC(N)CC1)C(F)(F)F (as salt: hydrochloride) | 245 to 246 °C | 
CCS(=O)(=O)N1C[C@H](C)N(C(=O)[C@@](C)(O)C(F)(F)F)C[C@H]1C | 142 to 144 °C | 
